ChEMBL document CHEMBL1154584, “Hachijodines A-G: seven new cytotoxic 3-alkylpyridine alkaloids from two marine sponges of the genera Xestospongia and amphimedon” (2000)

tested on: P388; assay: Cytotoxicity against mouse P388 cells; format: functional

`CN(O)CCCCCCCCC#CCCCCc1cccnc1` [HACHIJODINE F] and `CN(O)CCCCCCCC/C=C\C#CCCCCc1cccnc1` [HACHIJODINE G] are the same in Activity: 1 µg/mL for the first, 1 µg/mL for the second.

`CN(O)CCCCCCCCCCCCCc1cccnc1` [HACHIJODINE E] and `CONCCCCCCCCCCCCc1cccnc1` [HACHIJODINE A] are within 1.5-fold of each other in Activity: 2.3 µg/mL for the first, 2.2 µg/mL for the second.

`CONCCCCCCCCCCC(C)Cc1cccnc1` (configuration not stated) [HACHIJODINE D] and `CONCCC(C)CCCCCCCCCc1cccnc1` (configuration not stated) [HACHIJODINE B] are the same in Activity: 2.2 µg/mL for the first, 2.2 µg/mL for the second.

In the case of `CONCC(C)CCCCCCCCCCc1cccnc1` (configuration not stated) [HACHIJODINE C], the Activity is reported as 2.2 µg/mL.
